Experimental data taken from patent US8343515B2, “Perfluorocarbon gel formulations” (Oxygen Biotherapeutics, Inc., priority 2008, dated 2013).
Like-named read-outs stand apart in the source and are kept apart here.

Tests used:
skin tissue = experiment: Measuring oxygen tension in tissue with fluorescent marker (Example 4); assay type: in vivo; conditions: fluorescent marker injected into skin area treated with PFC or PFC gel
Protocol: A material which binds oxygen (fluorescent marker) is injected into skin tissue. The combination is fluorescent and the more oxygen that is present, the stronger the fluorescent signal. (representing the oxygen tension in the tissue). First it is determined that fluorescence chemistry is unaffected by the PFCs and poloxamers. Then as a control, the fluorescent marker is injected into the skin, and oxygen tension is obtained. Finally, the same area is treated with a PFC or a PFC gel and oxygen tension is again obtained.

[1] = Water solubility and lipophilicity (descriptive); assay type: physicochemical
[2] = 25° C.; cited from earlier work
[3] = Physical properties of perfluoro(tert-butylcyclohexane); assay type: physicochemical
Text: Physical properties of perfluoro(tert-butylcyclohexane) are as follows: […]

[4] = Gas solubility / Henry's Law sorption of oxygen and CO2 in the liquid; assay type: physicochemical
Protocol: The amount of dissolved oxygen in the liquid is measured after equilibration with a gas. The partial pressure of the gas (here, oxygen) is varied. The partial pressure of oxygen in air is 0.21 atm.
The amount of oxygen dissolved in each when the liquids are at equilibrium with the oxygen in the air can be found from the Henry's Law sorption isotherms for the liquids sketched in FIG. 2.
When the solubility of a gas in a liquid is measured, the solubility is nearly always a linear function of the partial pressure of the gas.

[5] = used for conversion to weight basis

Molecule | oxygen tension in tissue (skin tissue) | lipophilicity [1] | solubility in water [1] | lipophilicity ([1]; at body temperature) | lipophilicity ([1]; at room temperature) | Henry's law constant for oxygen [2] | Kinematic Viscosity (cP) [3] | density [3] | Vapor Pressure (mmHg) @ 25° C. ([3]; 25° C.) | Vapor Pressure (mmHg) @ 37° C. ([3]; 37° C.) | density [3, 5] | CO2 carried [4] | oxygen carried [4] | oxygen held in contact with air [4]
FC(F)(F)C(C(F)(F)F)(C(F)(F)F)C1(F)C(F)(F)C(F)(F)C(F)(F)C(F)(F)C1(F)F [perfluoro(tert-butylcyclohexane)] | substantially increases local oxygen tension in the tissue | non-lipophilic | non-water soluble | only slightly lipophilic | not lipophilic | about 600 mg O2/L/atm | 5.378 cP | 1970 g/L | 3.8 mmHg | 4.4 mmHg | 1966 g/L | 196 mL of CO2 per 100 mL of PFC | about 43 mL of oxygen per 100 mL of PFC | about 126 mg O2
water | – | – | – | – | – | about 8.3 mg O2/L/atm | – | – | – | – | 1000 g/L | – | – | –
perfluoroisopropyldecalin [APF-200, reference compound] | substantially increases local oxygen tension in the tissue | – | – | – | – | – | – | – | – | – | – | – | – | –
